This note sets out measurements from US9771369B2, “Compounds and methods for kinase modulation, and indications therefor” (Plexxikon Inc., priority 2014, dated 2017).

For this test, the target named is c-kit mutant D816V (Homo sapiens (Human), UniProt P10721, D816V/DEL694-753). Description: c-Kit mutant D816V biochemical assay (AlphaScreen kinase activity). The gist of the method: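 Recombinant His-tagged c-Kit D816V kinase domain (residues 551-934, insert 694-753 deleted, E. coli-expressed) phosphorylating 30 nM biotin-(E4Y)10 with 10 μM ATP, HEPES pH 7.2, Mg/Mn, 5% DMSO; 30 min, room temperature. Phosphorylation detected by AlphaScreen (streptavidin donor/PY30 acceptor beads); IC50 from 8-point 1:3 series.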
For orientation: Bead proximity is the source of the signal in Alpha formats.

c-kit mutant D816V, sequence (P10721 other isoform, or with tags, fused parts or gaps D816V/del 694-753): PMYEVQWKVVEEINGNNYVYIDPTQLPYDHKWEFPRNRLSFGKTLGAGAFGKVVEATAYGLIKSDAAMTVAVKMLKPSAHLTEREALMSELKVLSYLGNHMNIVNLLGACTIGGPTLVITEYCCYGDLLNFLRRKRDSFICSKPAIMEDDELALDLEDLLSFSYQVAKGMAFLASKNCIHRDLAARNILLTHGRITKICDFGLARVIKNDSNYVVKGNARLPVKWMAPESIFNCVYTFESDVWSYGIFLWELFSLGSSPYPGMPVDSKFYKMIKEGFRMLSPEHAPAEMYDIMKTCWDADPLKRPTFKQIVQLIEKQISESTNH

The compound `COc1cccc(-c2[nH]c(C3(C)CCN(c4ncnc5[nH]c(C)cc45)CC3)nc2C)c1` [P-3166, 4-[4-[5-(3-methoxyphenyl)-4-methyl-1H-imidazol-2-yl]-4-methyl-1-piperidyl]-6-methyl-7H-pyrrolo[2,3-d]pyrimidine] came in with an IC50 of 0.0001 to 1 µM.

`COc1cccc(-c2[nH]c(C3(C)CCN(c4ncnc5[nH]c(-c6ccc(C#N)cc6)cc45)CC3)nc2C)c1` [P-3167, 4-[4-[4-[5-(3-methoxyphenyl)-4-methyl-1H-imidazol-2-yl]-4-methyl-1-piperidyl]-7H-pyrrolo[2,3-d]pyrimidin-6-yl]benzonitrile] had a half-inhibitory concentration (IC50) of 0.0001 to 1 µM.

In turn, `COc1cccc(-c2[nH]c(C3(C)CCN(c4ncnc5[nH]c(-c6cnn(C(F)F)c6)cc45)CC3)nc2C)c1` [P-3168, 6-[1-(difluoromethyl)pyrazol-4-yl]-4-[4-[5-(3-methoxyphenyl)-4-methyl-1H-imidazol-2-yl]-4-methyl-1-piperidyl]-7H-pyrrolo[2,3-d]pyrimidine] came in with an IC50 of 0.0001 to 1 µM.

`COc1cccc(-c2[nH]c(C3(C)CCN(c4ncnc5[nH]c(-c6ccc(OC)nc6)cc45)CC3)nc2C)c1` [P-3169, 4-[4-[5-(3-methoxyphenyl)-4-methyl-1H-imidazol-2-yl]-4-methyl-1-piperidyl]-6-(6-methoxy-3-pyridyl)-7H-pyrrolo[2,3-d]pyrimidine]: the 50% inhibitory concentration (IC50) lay within 0.0001 to 1 µM.

In turn, `CCOc1ccc(-c2[nH]c(C3(C)CCN(c4ncnc5[nH]c(-c6cnn(C(F)F)c6)cc45)CC3)nc2C)cc1` [P-3170, 6-[1-(difluoromethyl)pyrazol-4-yl]-4-[4-[5-(4-ethoxyphenyl)-4-methyl-1H-imidazol-2-yl]-4-methyl-1-piperidyl]-7H-pyrrolo[2,3-d]pyrimidine] displayed a half-maximal inhibitory concentration (IC50) of 0.0001 to 1 µM.

`Fc1ccc(-c2cc3c(N4CCC(c5nnc(-c6cccc(OC(F)F)c6)[nH]5)CC4)ncnc3[nH]2)cc1` [P-3204, 4-[4-[5-[3-(difluoromethoxy)phenyl]-4H-1,2,4-triazol-3-yl]-1-piperidyl]-6-(4-fluorophenyl)-7H-pyrrolo[2,3-d]pyrimidine] displayed an IC50 of 0.0001 to 1 µM.

For `COc1cc(-c2cc3c(N4CCC(c5nnc(-c6ccc(F)cc6)[nH]5)CC4)ncnc3[nH]2)ccn1` [P-3205, 4-[4-[5-(4-fluorophenyl)-4H-1,2,4-triazol-3-yl]-1-piperidyl]-6-(2-methoxy-4-pyridyl)-7H-pyrrolo[2,3-d]pyrimidine], the IC50 was 1 to 10 µM.

By IC50 is commonly meant the concentration at which inhibition is half-maximal. Read a low IC50 as greater potency in that assay.
